# Tests used:
# [1] = tested on: patient's asthma, fluid retention, fatigue, weight loss and photo dermatitis; assay: Example 1: patient case, furosemide stopped and replaced with ethacrynic acid; type: in vivo; conditions: one patient
# Source text: In this case it is thought that decreasing the medications for allergies the patient was on may have contributed to the unmasking of an allergy to one of the components in the trade name compound.
# [2] = tested on: third spacing of fluid refractory to sulfa/sulfonamide; assay: Example 2: patient case, sulfa/sulfonamide compound stopped and patient placed on ethacrynic acid; type: in vivo; conditions: one patient; in one month; ethacrynic acid for a short period while stopping the sulfa/sulfonamide compound
# Source text: A patient who suffered from a mental impairment but knew they were allergic to sulfa/sulfonamide compounds (their blood pressure fell), had clinical evidence of edema even though the patient was on a potent sulfa/sulfonamide medication. The patient was placed on ethacrynic acid for a short period of time while stopping the sulfa/sulfonamide compound and in one month, 40 pounds of fluid was removed. In this case, the patient not only had clinical evidence of edema, they also had third spacing of fluid refractory to sulfa/sulfonamide they were on. Unfortunately the patient was lost to follow up.
compound,measurement,setting,value
C=C(CC)C(=O)c1ccc(OCC(=O)O)c(Cl)c1Cl [ethacrynic acid],laboratory studies,[1]; after replacing furosemide with ethacrynic acid,resolution of pyuria
same,"asthma, fluid retention, fatigue, weight loss and photo dermatitis",[1]; after stopping furosemide and replacing it with ethacrynic acid,improve within one weeks-time
same,"use of other medications for asthma, myalgia, dyspepsia and other symptoms",[1]; during ethacrynic acid treatment,less use or even elimination of other medications
same,tolerability (reason the patient could not continue the medication),[1]; trade name compound,adverse reaction to one of the constituents in the trade name compound
same,fluid removed,[2],40 pounds
